The source of these data is patent US6503525B1, “Absorbent article which maintains or improves skin health” (Kimberly-Clark Worldwide, Inc., priority 1999, dated 2003).

Assay [1] deals with proteolytic activity of infant urine. To be noted: 0-50 mM, pH 8.0, 37° C.
Method: The proteolytic activity of infant urine was measured using fluorescently-labeled casein.
Two (2) infant urine (100 μL) samples were added to wells of a 96 white plate (Dynex) containing 80 μL of 12.5 μg/ml solution of a fluorescent dye-labeled casein substrate (EnzChek Protease Assay Kit (E-6639)) in 100 mM Tris-HCl, pH 8.0, and allowed to incubate for 60 minutes at 37° C. […] Reaction of the infant urine with the casein substrate cleaves the fluorescent dye from the substrate. RFUs were collected using the Fluoroskan Ascent System with excitation and emission filters of 485 and 538 nm, respectively. Data were collected each minute for 60 minutes at 37° C. and rates (RFU/min) from 30-50 minutes were calculated for each zinc concentration. Using the uninhibited wells as 100% protease activity, percent of urine proteolytic activity remaining was determined for each concentration of zinc inhibitor (Inhibited Rate/Uninhibited rate* 100).
The test system of assay [2] is proteolytic activity of fecal extract. To be noted: 0-1 mM emulsions, pH 8.0, room temperature. Here is the method:
The supernatant was filtered through 0.22 micron cellulose acetate filters and stored at −80° C. until use.

Assay [3] deals with EpiDerm™ 201 synthetic skin (keratinocytes), interleukin-1 alpha release. From the text:
The synthetic skin, EpiDerm™ 201 (MatTek Corporation, Ashland, Mass.) contains keratinocytes that release interleukin-1 alpha (IL-1 alpha) when subjected to proteases in the fecal extract. When the IL-1 alpha was released, it diffused from the skin into the fluid below the EpiDerm™. Samples of this fluid were taken and analyzed for the presence of the IL-1 alpha. Higher levels of IL-1 alpha was indicative of greater skin irritation.
Prior to application onto the EpiDerm™, the fecal extract (10.4 μL) was pre-incubated for 30 minutes at room temperature with 250 mM zinc sulfate heptahydrate in water (2.6 μL). Water only and fecal extract only samples served as controls. After application of the samples to the EpiDerm™, 25 μL aliquots were removed from the underlying media at 8, 12, and 24 hours to test for the presence of the IL-1 alpha. The aliquots were directly added to a 1.5 mL micro-centrifuge tube containing 225 μL of filtered-sterilized 20 mM Tris-HCl, pH 8.0, 1% BSA buffer and stored at −80° C. After all samples were collected, IL-1 alpha levels were quantified using the R&D Systems Interleukin-1 alpha Quantikine Kit (R&D Systems, Minneapolis, Minn.).

Assay [4] has as its system proteolytic activity in the fecal extract. The assay is described as follows: Fecal extract protease assay with labeled casein (silk proteins). Format: biochemical, infant. To be noted: serial dilutions in 100 mM Tris-HCl pH 8.0, room temperature. Here is the method:
Water soluble silk protein (SERICIN, Pentapharm AG, Basel, Switzerland) and hydrolyzed silk (CROSILK 10,000, Croda, Incorporated, Parsippany, N.J.) were individually shown to inhibit proteolytic activity in the fecal extract that has been implicated to contribute to diaper rash. Serial dilutions of the neat protein and hydrolysate were performed with 100 mM Tris-HCl pH 8.0 as the diluent. The silk protein concentrations were determined using a Macro BCA Protein Assay Reagent Kit (Pierce, Rockford, Ill.).
Fecal extract was prepared as described above for the examples of silk protein and zinc compositions. […] The reaction was initiated with the addition of 100 μL of the 2 μg/ml fecal extract. […] The reaction was run for 30 min. at room temperature and rates (RFU/min) from 10-20 minutes were calculated.

Consider `O.O.O.O.O.O.O.O=S(=O)([O-])[O-].[Zn+2]` [zinc sulfate heptahydrate], for which the “inhibition of casein hydrolysis by infant urine (FIG. 10)” value in assay [1] is recorded as “effectively inhibited the hydrolysis of casein by infant urine in a dose-dependent manner”. Moreover, the “inhibition of casein hydrolysis by fecal extract (FIG. 9)” value in assay [2] is listed as “effectively inhibited the hydrolysis of casein by the fecal extract in a dose-dependent manner”. Further, in assay [3] (0, 25, 50, 125 and 250 mM in 2.6 μL aliquot added to 10.4 μL fecal extract), the “inhibition of fecal extract activity on EpiDerm, concentration series (FIG. 12)” value is reported as “effectively inhibits the proteolytic activity of fecal extract in a dose-dependent manner”. For the same molecule, the “interleukin-1 alpha released into underlying media (FIG. 11)” value in assay [3] (250 mM pre-incubated 30 min with fecal extract, relative to FE+water, 8, 12 and 24 hours) is given as “reduced the amount of interleukin-1 alpha released into the underlying media”.
Regarding SERICIN, the “fecal proteolytic activity (FIG. 13)” value in assay [4] is “reduction of proteolytic activity with increasing concentrations”.
